Results on one compound are retold here after US6573060B1, “Methods and compositions for targeting DNA metabolic processes using aminoglycoside derivatives” (University of Virginia Patent Foundation, priority 1997, dated 2003).

In one assay the test system is LNCaP cell line. Nature of the assay: MTS cell survival assay, LNCaP prostate cancer cells. The format is cell-based. The settings on record: Homo sapiens, 120 h, 8 wells, 5 days. On the procedure: The effect of phosphoaminoglycosides on tumor cell growth was tested in cell culture inhibition studies. 5000 cells were plated in a total volume of 50 μl in a 96 well titer plate. After 24 hours, 50 μl of media and drugs, to the required final concentration, were added. The plates were incubated at 37° C. for 5 days. On the 5th day, the fraction of surviving cells was estimated using a non-radioactive cell proliferation assay (CellTiter 96 AQueous Cell Proliferation Assay from Promega).
This is a colorimetric assay that determines the number of viable cells. The assay measures the bioreduction of a tetrazolium compound (3-(4,5-dimethylthiazol-2-yl)-5-(3-carboxymethoxyphenyl)-2-(4-sulfophenyl)-2H-tetrazolium, inner salt; MTS), via an electron coupling reagent (phenazine methosulfate; PMS), to formazan, which is soluble in the tissue culture medium. The absorbance of formazan at 490 nm can be measured from the 96 well assay plate without additional processing. The conversion of MTS into the aqueous soluble formazan is accomplished by dehydrogenase enzymes found in metabolically active cells. The quantity of formazan product as measured by the amount of 490 nm absorbance is directly proportional to the number of living cells in culture. […] 20 μl of PMS/MTS solution was added to the cells and the plates were incubated at 37° C. for 2 hours before measuring the absorbance at 490 nm. […]
For orientation: Tetrazolium assays rely on reduction of a dye to a coloured formazan, in cell work by metabolically active cells.

A further assay concerns the target T1, DNA-dependent ATPase A (Bos taurus, UniProt Q9TTA5).
T1 sequence (Q9TTA5 222-940): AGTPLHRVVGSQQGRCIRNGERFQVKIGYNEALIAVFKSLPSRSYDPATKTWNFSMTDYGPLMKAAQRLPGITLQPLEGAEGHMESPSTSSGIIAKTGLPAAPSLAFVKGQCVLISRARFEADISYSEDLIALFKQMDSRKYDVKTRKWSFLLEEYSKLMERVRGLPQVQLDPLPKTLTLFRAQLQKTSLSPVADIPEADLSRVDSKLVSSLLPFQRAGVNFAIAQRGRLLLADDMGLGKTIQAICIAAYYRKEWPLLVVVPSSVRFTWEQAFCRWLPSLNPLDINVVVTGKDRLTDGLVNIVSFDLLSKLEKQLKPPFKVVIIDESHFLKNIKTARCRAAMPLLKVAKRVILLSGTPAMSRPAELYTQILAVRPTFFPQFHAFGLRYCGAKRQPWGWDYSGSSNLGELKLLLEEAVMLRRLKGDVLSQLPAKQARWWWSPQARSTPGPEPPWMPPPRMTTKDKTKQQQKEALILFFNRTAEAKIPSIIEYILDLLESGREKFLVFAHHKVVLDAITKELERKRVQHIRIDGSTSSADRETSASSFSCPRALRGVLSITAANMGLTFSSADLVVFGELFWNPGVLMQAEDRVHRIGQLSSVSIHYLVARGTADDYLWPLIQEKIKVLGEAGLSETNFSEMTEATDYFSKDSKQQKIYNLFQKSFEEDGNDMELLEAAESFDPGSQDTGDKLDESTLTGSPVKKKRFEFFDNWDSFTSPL
Nature of the assay: Inhibition of ATP hydrolysis by DNA-dependent ATPase A (overexpressed 82 kDa ADAAD). It is filed as biochemical, bovine. The settings on record: for inhibition of DNA-dependent ATPase A activity (in words): in vitro. On the procedure: Enzyme (0.2 units (one unit is the amount of enzyme required to hydrolyze 1 μmole of adenosine triphosphate per min)) was mixed with 50 mM Tris-SO4, pH 7.5, 1 mM MgCl2, 5 mM β-mercaptoethanol, 0.5 mg/mL bovine serum albumin, 2 mM phosphoenol pyruvate, 0.03 mg/mL pyruvate kinase, 10 nM of stem-loop DNA, and 2 mM adenosine triphosphate in a total volume of 100 μL. The reaction was typically incubated at 37° C. for 10-60 minutes. At the end of the designated time, 225 μL of 10% sodium dodecyl sulfate and 350 μL of water were added to stop the reaction. Color development requires the addition of two reagents: 180 μL of reagent A (prepared by mixing equal volumes of 60 to 70% perchloric acid and 5% ammonium molybdate in water) and 45 μL of reagent B (0.2 g 1:2:4 aminonaphthol sulfonic acid, 12.0 g sodium metabisulfite, and 2.4 g sodium sulfite dissolved in 100 mL of water) was added. The reaction was incubated at room temperature for 10 minutes and the absorbance was read at 720 nm. The color development was time-dependent and therefore samples must be read at exactly 10 minutes.
Enzyme (0.2 units (one unit is the amount of enzyme required to hydrolyze 1 μmole of adenosine triphosphate per min)) was mixed with 25 mM Tris-acetate pH 7.5, 6 mM Mg(acetate)2, 60 mM KCl, 5 mM β-mercaptoethanol, 3 mM phosphoenol pyruvate, 10 units/mL pyruvate kinase, 10 units/mL lactate dehydrogenase 10 nM DNA, 2 mM adenosine triphosphate, and 0.1 mg/mL NADH in a final volume of 1 mL. The progress of the reaction at 37° C. was monitored at 340 nm using an HP8452 spectrophotometer.
Enzyme (0.2 U) was mixed with 50 mM Tris-SO4, pH 7.5, 1 mM MgCl2, 5 mM β-mercaptoethanol, 0.5 mg/mL bovine serum albumin, 2 mM phosphoenol pyruvate, 0.03 mg/mL pyruvate kinase, 10 nM of stem-loop DNA, and 2 mM adenosine triphosphate in a total volume of 50 μL. Three (3) μCi of [^32P]-γ-adenosine triphosphate was added to the reaction and typical incubation was for 60 minutes 37° C. EDTA (25 mM) was added to stop the reaction. 10 μL of the reaction was spotted on a poly(ethylenimine)-cellulose plate. The plate was developed using 0.9M LiCl and 7M urea as solvent system. The plate was allowed to dry and autoradiographed either using X-OMAT film or a phosphorimager. […]

The subject of another assay is Entamoeba histolytica. The assay can be described thus: Entamoeba histolytica culture growth. Conditions: 72 h, read-out: concentration that completely kills the cells. It is filed as cell-based. On the procedure:
Entamoeba histolytica HMl-ISS strain was used for the experiment. The cells were grown in tissue culture medium TYI-S-33 containing trypticase, yeast extract, iron and serum along with 100 units/ml penicillin and […] streptomycin sulfate. 500,000 amoebae were incubated in 2 mls of media. The drugs were added to the required final concentration. The total number of amoebae was counted every 24 hours after the addition of drugs using light microscope. Growth was monitored over a period of 72 hours.

Usually viability stands for a read-out of living cells in per cent, often relative to untreated cells. As usually defined, the Ki is a measure of affinity in units of concentration, obtained from inhibition or displacement. For `NC[C@H]1O[C@H](O[C@H]2[C@H](O)[C@@H](O[C@H]3O[C@H](CO)[C@@H](O)[C@H](N)[C@H]3O)[C@H](N)C[C@@H]2N)[C@H](O)[C@@H](OP(=O)(O)O)[C@@H]1O` [phosphokanamycin, 3′-phosphokanamycin], in the assay with LNCaP cell line, the viability at 100 µM was 109 ± 9%. Moreover, the Ki at DNA-dependent ATPase A (Table 4, determined in the presence of effector) is 580 nM; at DNA-dependent ATPase A (kinetic analysis of ATP hydrolysis, competitive with respect to DNA), approximately 200 nM. Further, the “inhibition of DNA-dependent ATPase A activity (in words)” value was “inhibitor” on DNA-dependent ATPase A and “potent competitive (with respect to DNA) inhibitor” against DNA-dependent ATPase A (listed as 3′-phosphokanamycin). Moreover, on DNA-dependent ATPase A (phosphorylated derivative vs parent), the “decrease in amount of drug required for a given level of inhibition / potency relative to the parent aminoglycoside” value stood at 1000 fold. The IC (100 (complete killing)) in the assay on Entamoeba histolytica was 200 µM.
